Measurements from patent US9023767B2, “γ-Secretase substrates and methods of use” (Memorial Sloan-Kettering Cancer Center, priority 2009, dated 2015).

Columns and labels:
γ-secretase [1] = biological target: T1, γ-secretase (Homo sapiens (Human), UniProt P49768+Q92542); assay: In vitro γ-secretase assay, HeLa membrane, APP-derived substrates, ECL detection; assay type: biochemical; details: S4 substrate
Description: The recombinant proteins were incubated with γ-secretase (40 μg/ml) in the presence or absence of 1 μM γ-secretase inhibitor L-685,458 (CAS [292632-98-5], shown below). The reaction mixture contains 0.25% 3[(3-cholamidopropyl) dimethylammonio]-2-hydroxypropanesulfonic acid (CHAPSO), 0.1 μg/μl BSA, protease inhibitor, 50 mM PIPES, pH 7.0, 5 mM MgCl2, 5 mM CaCl2 and 150 mM KCl. The reaction was incubated for 2.5 hr at 37° C. and stopped by adding RIPA buffer (150 mM NaCl, 1.0% NP-40, 0.5% sodium
[drawing 1] deoxycholate, 0.1% SDS, 50 mM Tris HCl, pH 8.0). The products were detected with various antibody combinations as previously described (Lai et al., 2003; J. Biol. Chem., 278: 22475-22481; Li et al., 2000, Proc. Natl. Acad. Sci. USA, 97: 6138-6143; Yin et al., 2007, J. Biol. Chem., 282:23639-23644) using electrochemiluminescence (ECL). The amount of product was determined using synthetic peptide or recombinant standards. The Km and Vmax were determined from the Michaelis-Menten equation Michaelis-Menten Kinetics (ν=Vm[S]/([…]; ν: initial rate; Vm: maximum velocity; Km: the Michaelis-Menten constant, S: substrate). P-values were calculated from Student t-test. 7.1.5 Cell-Based Aβ Production Assay and Western Blot

γ-secretase [2] = biological target: T1, γ-secretase; assay: Photoaffinity labeling of γ-secretase in HeLa membrane by Aβ17-23BPA20-biotin; assay type: binding; details: inhibitor at 2 μM
Description: FIG. 4. […] Various concentrations of inhibitor were incubated with APP substrate (S4) or Notch peptide substrate containing the C-terminal biotinylated transmembrane domain of Notch1 and HeLa cell membrane in the presence of 0.25% CHAPSO. Aβ40 was detected by G2-10 antibody. The cleaved Notch product was detected by Val1744 antibody that specifically recognizes the cleaved product between Gly1743 and Val1744. Activities are expressed as percentage relative to reading that was produced in DMSO control. […] Various concentrations of S4 substrate were incubated with HeLa membrane in fixed concentrations of inhibitor as indicated. The double reciprocal velocity (1/v) and substrate concentrations (1/S) are plotted to determine the type of inhibition. […] Assays were conducted as described in FIG. 4A. […] The labeled samples were solubilized with RIPA buffer. Biotinylated proteins were captured with streptavidin-agarose and probed by immunoblotting using antibodies against biotin, PS1-CTF, PS1-NTF, Nicastrin, PEN-2 and APH-1a. HeLa cell membrane proteins were directly loaded onto lanes indicated by an arrow in the PEN-2 and APH-1a blots as positive controls. […] Upper panel: PS1-NTF; Lower panel: PS1-CTF.
The labeled proteins were eluted with 2×SDS sample buffer and analyzed with Western blotting using antibodies against the components of γ-secretase complex. Protein concentration was determined with the Dc protein assay kit (Bio-Rad)
After the photolyzed membranes were solubilized, biotinylated proteins were captured, eluted and analyzed by western blotting with antibodies against biotin, PS1, nicastrin, PEN-2 and APH-1.

γ-secretase [3] = biological target: T2, γ-secretase (Homo sapiens (Human), UniProt P49768); assay: Notch1 processing in ΔE-Notch1 transfected HEK293 cells, NICD Western blot; assay type: cell-based; details: 2 μM, 48 hrs
Description: FIG. 5. […] The conditioned media were collected and secreted Aβ40 was measured with 6E10/G2-10 antibodies (mean±SEM; n=3). The activities of the peptide treatments were normalized to the DMSO treatment. […] The same experiments were performed as FIG. 5c. The cell lysates were analyzed by CT-15 antibody. Upper panel: full length APP. Lower panel: CTFs. […] The ΔE-Notch1 (a Notch construct with deletion of the extracellular portion and tagged by Myc) was transfected into HEK293 cells.

γ-secretase [4] = biological target: T2, γ-secretase; assay: HTRF γ-secretase assay with Sb4 substrate; assay type: biochemical; details: 384-well, 2% DMSO; read-out: IC50, HTRF assay
Excerpt: We set out to transfer the assay conditions obtained with the ECL method to an HTRF detection based format (FIG. 10b). The HTRF detection mixture consisted of mouse G2-10 antibody for recognition of the C-terminal epitope of the cleaved product, a Europium-labeled anti-mouse antibody (commonly, an antibody is conjugated with a cryptate ligand that forms a three dimensional coordination cage structure surrounding a lanthanide such as Eu^3+), along with Streptavidin conjugated to a trimeric form of the fluorescent protein allophycocyanin referred to as XL665. Cleavage of Sb4 substrate allows G2-10 mouse antibody to bind to the Aβ40-processed site on the cleaved substrate. The Steptavidin-XL665 conjugate binds directly with the biotin moiety on the N-terminal end of the Sb4 derived product. The anti-mouse Europium antibody targets to the G2-10 antibody, bringing all of these entities into close proximity. The Europium and XL665 reagents are a compatible pair of donor-acceptor fluorophores, and excitation of Europium at 337 nm results in fluorescence energy resonance transfer (FRET) to XL665 which fluoresces at 665 nm (FIG. 10b).
Human γ-secretase was prepared from HeLa cell membranes as described previously (Li et al., 2000). Briefly, HeLa cell pellet was resuspended in 1×MES buffer (50 mM MES, pH 6.0, 150 mM KCl, 5 mM CaCl2, 5 mM MgCl2) and treated with ‘complete’ protease inhibitor (Boehringer Mannheim). The resuspended pellet was mechanically homogenized by passing the cells through the French Press (Spectronic Instruments), and subsequently spun down at 800 g to remove cell debris and nuclei. Next, the supernatants were spun at 100,000 g in order to pellet the membranes. The pelleted membranes were resuspended in 1×MES buffer to approximately 12 mg/ml. This entire procedure was performed at 4° C. HeLa membranes were solubilized using 1% CHAPSO detergent in 1×MES buffer with protease inhibitors. After incubating for 1 hr at 4° C., the membrane was spun down at 100,000 g and the supernatants were collected and stored at −70° C. The collected fraction is defined as solubilized γ-secretase.
HTRF conditions were initially optimized in a 384-well format using a final volume of 20 μl. The high control for this assay was defined as the observed γ-secretase activity in the presence of 1% DMSO (v/v) and the low control as the activity observed when including 100 nM final concentration of Compound E (v/v). First, we determined a tolerable DMSO concentration that would not interfere with γ-secretase activity. Even with 3% DMSO (v/v) present in the assay mixture, there was virtually no effect on the γ-secretase activity (FIG. 11a), which was critical as delivery of library screening compounds required a final concentration of 2% DMSO (v/v) in the γ-secretase reaction. Next, we titrated the HTRF mixture components in an effort to minimize reagent costs for use in high throughput screening. […] Additionally, we varied Europium conjugated anti-mouse antibody and determined that 1 nM of this reagent in the HTRF mixture was sufficient for our assay conditions even though the signal continued to increase with higher concentrations of the anti-mouse antibody (FIG. 11c).
We have further miniaturized the HTRF assay from the established 384-well format to a 1536-well platform enabling more efficient screening of large chemical libraries. […] Based on these optimization experiments, we set our final assay conditions at 0.3 nM G2-10, 1 nM anti-mouse antibody, 15 nM Streptavidin-XL665, and proceeded with the assay at 10 μl final volume (5 μl γ-secretase mix+5 μl HTRF mix) in the 1536-well format for screening.
The pilot assay was performed in duplicate on two separate days to account for any day-to-day variability. […]

A20 mouse lymphoma cells = assay: Lymphoma cell proliferation assay, [3H]thymidine incorporation; assay type: cell-based; details: 48 hours
Description: For a lymphoma cell proliferation assay, A20 mouse lymphoma cells were seeded in a 96-well plate at a concentration of 5×10^5 cells/ml in 100 μl RPMI media containing 2% fetal bovine serum. An additional 100 μl of media containing DMSO or γ-secretase inhibitor was added and incubated for 48 hours at 37° C. After this incubation, the cells were incubated for 5 hours with 2 μCi/ml [^3H]thymidine at 37° C. Proliferative response was then evaluated by harvesting the tritiated DNA from cells using a Skatron cell harvester and proliferation assessed as a function of [^3H]thymidine incorporation measured on a β-counter.

type of inhibition (Lineweaver-Burk) (γ-secretase [1]): competitive inhibition
block of photo-crosslinking of PS1-CTF and PS1-NTF by Aβ17-23BPA20-biotin (γ-secretase [2]): completely blocked
production of NICD (γ-secretase [3]): NICD was not detected
IC50 (γ-secretase [4]): 1.4 nM
Structure (SMILES): CC(C)C[C@H](NC(=O)[C@H](Cc1ccccc1)C[C@@H](O)[C@H](Cc1ccccc1)NC(=O)OC(C)(C)C)C(=O)N[C@@H](Cc1ccccc1)C(N)=O [L-685,458]
inhibition of cellular proliferation (A20 mouse lymphoma cells): able to inhibit cellular proliferation
